Tests used:
Snail = test: Western blot of Snail protein; assay type: cell-based, human; settings: for effect of chloroquine (CQ) on Snail levels: MP or MOG combined with CQ
Protocol: (§1) Cells were harvested, washed with PBS, and lysed on ice with RIPA buffer containing protease and phophatase inhibitor cocktail (GenDEPOT). After 15 minutes of incubation, the cell lysates were centrifuged at 15,000 rpm at 4° C. for 10 minutes. Protein concentration was measured by Bradford assay (Bio-rad, 500-0006). Equal amounts of total protein were placed on an SDS gel electrophoresis and transferred to a PVDF membrane (Bio-rad). The membrane was blocked with 5% skim milk for 1 hour at room temperature and incubated overnight at 4° C. with primary antibody in a buffer containing 0.1% Tween-20. Subsequently, the membrane was washed three times with Tween-PBS buffer and incubated for 1 hour at room temperature using a secondary antibody diluted in blocking buffer containing 0.1% Tween-20. Subsequently, the membrane was washed three times for 10 minutes each using Tween-TBS. Densitometry of Western blots was measured using ImageJ software.
[…] For autophagy activation, cells were'treated with 2 μM rapamycin (Selleckchem, S1039) for 5 hours. Modulation of intracellular ROS was performed with N-acetyl-cysteine (10 mM) (Sigma, A7250), hydrogen peroxide solution (100 μM to 200 μM) (Sigma, 216763), or CDDO-ME NRF2 activator (50 nM, 100 nM) (Sellckchem, S8078) for 4 to 24 hours. Intercellular calcium signal control was performed for 1 hour using BAPTA-AM (20 μM) (Sigma, A1076) or Calmidazolium Chloride (2.5 μM) (Sigma, C3930). […] For TFEB protein phosphorylation, tacrolimus (1 μM) (Selleckchem, S5003) was treated for 1 hour. […] During siRNA treatment, each siRNA was treated to a concentration of 40 to 50 nM and treated together with Lipofectamine RNAiMax (Thermo Fisher Scientific, 13778150) for transformation, and were used for experiments 48 to 72 hours later. For cDNA treatment, each cDNA was treated to a concentration of 1 to 2 μg in a 6-well plate and treated with Lipofectamine 2000 (Thermo Fisher Scientific, 11668019) for transformation, and were used for experiments 24 hours later.

Intracellular citrate = test: Citrate assay; assay type: cell-based, human; settings: HBEC-KL; 8 mM MP or 3 mM MOG in the presence of 50 uM CQ
Protocol: Intracellular citrate levels were calculated in the pmol range using a citrate assay kit (Biovision, K655). After sonication, proteins were removed from the supernatant using a 10 kDa molecular weight cutoff spin column, followed by incubation at room temperature for 30 minutes with 50 μl citrate reaction mixture comprising enzyme mixture, developer and citrate probe. Citrate content was measured by reading OD 570 nm with an Envision Multimode Plate Reader (PerkinElmer 2105-0010, Waltham, MA, USA). After correcting the background in all readings, the value of each sample was determined and normalized to the protein concentration of each sample.

LC3 = test: Autophagic flux (LC3 Western blot, mRFP-GFP-LC3 lysosomal delivery assay); assay type: cell-based, human; settings: HBEC-KL cell line; NAC or 50 uM STO-609, 24 hours
Protocol: as §1, with “Representative GFP-LC3, RFP-LC3 and overlapping images are shown. In addition, red puncta (mRFP+/GFP−) and yellow puncta (mRFP+/GFP+) per cell were quantified and graphed (n=15 cells/treatment). Cells” for “Cells”

TFEB = test: Western blot / immunoprecipitation-immunoblot of TFEB (acetylated, phosphorylated, total); assay type: cell-based, human; settings: HBEC-KL; 50 uM STO-609, 24 hours
Protocol: FIG. 11J illustrates a diagram of immunoblot results of the […] a control (left), and the immunoprecipitation-immunoblot result of TFEB acetylated HBEC-KL cells under the same conditions (right) is also shown,
as §1
For immunoprecipitation, equal amounts of lysate and Co-IP buffer (40 mM HEPES, pH 7.4, 120 mM NaCl, 2 mM EDTA, 0.3% CHAPS (Sigma, 10810118001), 10 mM pyrophosphate (Sigma, 221368), 10 mM glycerophosphate (Sigma, G9422), 50 mM NaF, phosphatase and protease inhibitor mixture) were mixed. Cell lysates (1 μg protein) were incubated overnight at 4° C. on anti-FLAG® M2 Affinity Gel (Sigma, A2220) or anti-acetyl-lysine antibody coated agarose (ImmuneChem Pharmaceuticals, ICP0388). The immunoprecipitate was then washed three times in IP buffer, and the immunoprecipitated complex was dissolved and separated by boiling in IP buffer for 5 minutes.

acetylated Snail = test: Immunoprecipitation-immunoblot of acetylated Snail; assay type: cell-based, human; settings: A549 luciferase cell line in vitro; 50 uM STO-609, 24 hours
Protocol: Cell lysates (1 μg protein) were incubated overnight at 4° C. on anti-FLAG® M2 Affinity Gel (Sigma, A2220) or anti-acetyl-lysine antibody coated agarose (ImmuneChem Pharmaceuticals, ICP0388). The immunoprecipitate was then washed three times in IP buffer, and the immunoprecipitated complex was dissolved and separated by boiling in IP buffer for 5 minutes.
For SDS-PAGE electrophoresis, the immunoprecipitated complex was transferred to a nitrocellulose membrane and the membrane was blocked and then incubated for 1 hour at room temperature with Primary antibody and secondary antibody (VeriBlot for IP Detection Reagent (HRP) (Abcam, #ab131366), and anti-mouse IgG tor IP (HRP) (Abeam, #ab131368)).
After washing 3 times, the membrane was incubated with the secondary antibody.

A549-luc cells = test: A549-luc tail vein injection metastasis model; assay type: in vivo; settings: nude mice; 25 mg/kg, 100 mg/kg, qd, p.o. 28 consecutive days; compared to the vehicle-treated group
Protocol: FIG. 13E illustrates role of STO-609 on cancer metastasis in an A549-luc tail vein injection model. After intravenous injection of A549-luc cells into nude mice, vehicle or STO-609 (25 mg/kg and 100 mg/kg qd) was injected for 28 days starting one day after the injection. A picture taken of a bioluminescent image when 4 weeks have elapsed after injection is shown (above). Analysis results of the total metastasis burden by photonic flux are shown (below). FIG. 13H illustrates the role of BMS303141 on cancer metastasis in an A549-luc tail vein injection model. A549-luc cells were intravenously injected into nude mice, and then vehicle or BMS303141 (100 mg/kg q.d.) was injected for 20 days starting one day after the injection. A bioluminescence image when 3 weeks have elapsed after injection is shown. 7- to 9-week-old BALB/c-nu Sic mice were obtained from SLC, Inc. (Shizuoka, Japan) and used, A549-luc cells (#JCRB1414) or SNAI1 shRNA-mediated knockdown A549-luc cells were injected at 3-4.5×10^6 cells through the tail vein of mice. After 3 to 4 weeks, metastasis was monitored by bioluminescence imaging analysis. More specifically, after injecting D-luciferin (75 mg/kg) (PerkinElmer, 122799) into the abdominal cavity of the mouse, images were obtained using an IVIS imaging system (IVIS 200, PerkinElmer, Waltham, MA, USA) in the supine position. Lung tissue was obtained for histopathological analysis. Images were analyzed using commercially available software (ImageScope; Aperio Technologies). In the STO-609 efficacy test, STO-609 (25 mg, 100 mg/kg/day) was orally administered to mice on the day of injection. In the BMS303141 efficacy test, BMS303141 (100 mg/kg/day) was orally administered to mice on the day of injection.

Row | SMILES | Snail expression level decreased by siCS (Snail; HBEC-KL, 8 mM MP) | effect of chloroquine (CQ) on Snail levels (Snail; HBEC-KL) | effect of chloroquine (CQ) on citrate levels (Intracellular citrate) | expression level of Snail decreased by siIDH1 (Snail; HBEC-KL, 3 mM MOG) | Snail levels when ACLY was reduced (Snail; HBEC-KL, MOG supplemented condition, ACLY siRNA) | autophagic flux (LC3) | acetylated TFEB (TFEB) | Snail protein (Snail; HBEC-KL cell line, STO-609) | abnormal increase in Snail expression level by AMG-510 (Snail; KL cell lines, 1 uM AMG-510 and 50 uM STO-609) | acetylated Snail (acetylated Snail) | total metastasis burden (photonic flux) (A549-luc cells) | total number of lung metastases (A549-luc cells)
1 | COC(=O)C(C)=O [MP, methyl pyruvate] | not increased | completely reverses | completely reverses | – | – | – | – | – | – | – | – | –
2 | COC(=O)CCC(=O)C(=O)OC [MOG, dimethyl-2-oxoglutarate] | – | completely reverses | completely reverses | restored | did not recover | – | – | – | – | – | – | –
3 | O=C(O)c1ccc2c3c1cccc3c(=O)n1c3ccccc3nc21 [STO-609] | – | – | – | – | – | decreased | reduces | reduction | reduced | reduced | reduced | reduced
